Values quoted from earlier work in US12630801B2, “Stem cell-derived Schwann cells” (MEMORIAL SLOAN-KETTERING CANCER CENTER, priority 2016, dated 2026).

Assays:
Conditions in all cases: Yu et al. 2008; Cuny et al. 2008
ALK3 = ALK3 (Homo sapiens, UniProt P36894)
ALK6 = ALK6 (Homo sapiens, UniProt O00238)
ALK2 = molecular target: T1, ALK2 (Homo sapiens, UniProt Q04771)
T1 sequence (Q04771 21-509): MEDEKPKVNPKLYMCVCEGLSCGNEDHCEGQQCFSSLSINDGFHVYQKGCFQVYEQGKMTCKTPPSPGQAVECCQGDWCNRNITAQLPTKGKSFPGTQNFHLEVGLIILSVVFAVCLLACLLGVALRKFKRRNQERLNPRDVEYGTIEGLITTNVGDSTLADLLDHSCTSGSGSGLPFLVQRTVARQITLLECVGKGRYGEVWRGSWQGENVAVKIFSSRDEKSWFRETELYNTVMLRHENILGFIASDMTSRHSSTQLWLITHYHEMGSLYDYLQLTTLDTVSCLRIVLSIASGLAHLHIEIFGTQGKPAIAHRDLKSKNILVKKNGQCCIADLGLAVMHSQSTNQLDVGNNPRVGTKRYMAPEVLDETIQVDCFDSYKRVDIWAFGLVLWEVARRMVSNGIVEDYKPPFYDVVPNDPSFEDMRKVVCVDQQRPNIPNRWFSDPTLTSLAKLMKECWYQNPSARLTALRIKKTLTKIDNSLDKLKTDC

Chain of ALK6 (O00238 14-502): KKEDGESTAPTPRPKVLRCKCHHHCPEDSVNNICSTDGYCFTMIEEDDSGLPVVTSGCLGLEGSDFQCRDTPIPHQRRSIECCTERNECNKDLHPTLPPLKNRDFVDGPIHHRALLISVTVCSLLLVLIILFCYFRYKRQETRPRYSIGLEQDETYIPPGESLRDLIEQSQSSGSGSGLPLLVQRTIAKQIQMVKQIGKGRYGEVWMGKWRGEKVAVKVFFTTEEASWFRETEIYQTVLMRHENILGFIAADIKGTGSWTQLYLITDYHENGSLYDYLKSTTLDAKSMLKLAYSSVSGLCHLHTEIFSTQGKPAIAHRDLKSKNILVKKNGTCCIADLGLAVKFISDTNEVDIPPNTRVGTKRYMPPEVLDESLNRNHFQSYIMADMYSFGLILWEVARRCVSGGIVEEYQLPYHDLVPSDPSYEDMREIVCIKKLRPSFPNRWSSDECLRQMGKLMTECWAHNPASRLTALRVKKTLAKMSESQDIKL
Chain of ALK3 (P36894 24-532, species assumed): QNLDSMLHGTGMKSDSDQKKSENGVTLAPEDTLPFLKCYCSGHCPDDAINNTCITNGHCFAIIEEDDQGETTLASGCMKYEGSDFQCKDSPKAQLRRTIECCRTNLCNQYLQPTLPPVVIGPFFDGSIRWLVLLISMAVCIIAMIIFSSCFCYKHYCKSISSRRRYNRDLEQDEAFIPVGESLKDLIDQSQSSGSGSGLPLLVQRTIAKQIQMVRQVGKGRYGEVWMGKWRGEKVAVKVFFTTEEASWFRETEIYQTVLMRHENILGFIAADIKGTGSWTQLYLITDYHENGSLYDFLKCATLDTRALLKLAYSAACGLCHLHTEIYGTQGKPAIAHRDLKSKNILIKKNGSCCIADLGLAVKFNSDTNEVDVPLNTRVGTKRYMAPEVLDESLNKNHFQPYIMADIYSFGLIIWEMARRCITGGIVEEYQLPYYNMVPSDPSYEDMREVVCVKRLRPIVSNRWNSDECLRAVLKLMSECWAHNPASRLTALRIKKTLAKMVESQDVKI

c1ccc2c(-c3cnn4cc(-c5ccc(N6CCNCC6)cc5)cnc34)ccnc2c1 [LDN193189, 4-(6-(4-(piperazin-1-yl)phenyl)pyrazolo[1,5-a]pyrimidin-3-yl)quinoline]
highly potent small-molecule inhibitor: inhibition of ALK3 (ALK3) | inhibition of ALK6 (ALK6) | inhibition of ALK2 (ALK2)
